Legend:
[1] = system: human lung cancer strain NCI-H441;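 further: cell proliferation inhibition after four days measured by CellTiter-Glo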
[2] = molecular target: GDP-bound KRAS wild-type protein (Homo sapiens, UniProt P01116); test: Binding to KRAS by surface plasmon resonance (SPR), Single Cycle Kinetics; conditions: SPR, Single Cycle Kinetics, GDP-bound KRAS wild-type protein; read-out: KRAS KD
[3] = molecular target: GDP-bound NRAS wild-type protein (Homo sapiens, UniProt P01111); test: Binding to NRAS by surface plasmon resonance (SPR), Single Cycle Kinetics; conditions: SPR, GDP-bound NRAS wild-type protein vs GDP-bound KRAS wild-type protein
[4] = molecular target: GDP-bound HRAS wild-type protein (Homo sapiens, UniProt P01112); test: Binding to HRAS by surface plasmon resonance (SPR), Single Cycle Kinetics; conditions: SPR, GDP-bound HRAS wild-type protein vs GDP-bound KRAS wild-type protein
Sequence of GDP-bound HRAS wild-type protein (P01112 whole entry): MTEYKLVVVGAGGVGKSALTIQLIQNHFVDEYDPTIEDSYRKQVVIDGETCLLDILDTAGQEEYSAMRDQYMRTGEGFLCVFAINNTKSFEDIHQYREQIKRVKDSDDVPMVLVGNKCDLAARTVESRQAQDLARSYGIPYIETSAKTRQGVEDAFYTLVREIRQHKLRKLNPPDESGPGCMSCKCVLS

Sequence of GDP-bound KRAS wild-type protein (P01116 whole entry): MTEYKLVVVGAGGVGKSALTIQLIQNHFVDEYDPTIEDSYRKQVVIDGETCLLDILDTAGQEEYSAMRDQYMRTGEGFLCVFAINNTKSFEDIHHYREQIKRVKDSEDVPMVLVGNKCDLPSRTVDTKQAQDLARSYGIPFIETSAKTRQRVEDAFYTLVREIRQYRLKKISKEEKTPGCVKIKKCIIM
Sequence of GDP-bound NRAS wild-type protein (P01111 whole entry): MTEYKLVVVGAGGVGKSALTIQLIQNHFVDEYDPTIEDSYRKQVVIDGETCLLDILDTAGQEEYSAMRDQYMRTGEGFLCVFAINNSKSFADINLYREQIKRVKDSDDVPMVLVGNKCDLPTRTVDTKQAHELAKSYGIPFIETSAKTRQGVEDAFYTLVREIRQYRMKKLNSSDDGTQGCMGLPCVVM

Compound: CCO[C@@H]1C[C@H]2C(=O)NC3(CCCC3)C(=O)N(C)[C@@H](C3CCCC3)C(=O)N(C)[C@H](C(=O)N3CCOCC3)CC(=O)N(C)[C@@H](COC)C(=O)N[C@@H]([C@@H](C)CC)C(=O)NCC(=O)N(C)[C@H]3CCCCCN(C3=O)[C@@H](Cc3ccc(C(F)(F)F)cc3)C(=O)N(C)CC(=O)N[C@@H](CCc3cc(F)c(C(F)(F)F)c(F)c3)C(=O)N2C1 [PP0862]
- IC50 [1]: 81.1 nM
- Kd [2]: 1.1 nM
- NRAS/KRAS (ratio of KD value for NRAS to KD value for KRAS) [3]: B (a compound having 3 or more and less than 10 is denoted as B)
- HRAS/KRAS (ratio of KD value for HRAS to KD value for KRAS) [4]: B (a compound having 3 or more and less than 10 is denoted as B)

Compound: CCO[C@@H]1C[C@H]2C(=O)NC3(CCCC3)C(=O)N(C)[C@@H](C3CCCC3)C(=O)N(C)[C@H](C(=O)N3CCOCC3)CC(=O)N(C)[C@@H](COC)C(=O)N[C@@H]([C@@H](C)CC)C(=O)N3CC[C@H]3C(=O)N(C)[C@H]3CCCCCN(C3=O)[C@@H](Cc3ccc(C(F)(F)F)cc3)C(=O)N(C)CC(=O)N[C@@H](CCc3cc(F)c(C(F)(F)F)c(F)c3)C(=O)N2C1 [PP0867]
- IC50 [1]: 206 nM
- Kd [2]: 1.2 nM
- NRAS/KRAS (ratio of KD value for NRAS to KD value for KRAS) [3]: B (a compound having 3 or more and less than 10 is denoted as B)
- HRAS/KRAS (ratio of KD value for HRAS to KD value for KRAS) [4]: B (a compound having 3 or more and less than 10 is denoted as B)

Compound: C=CCC[C@H]1C(=O)N[C@@H]([C@@H](C)CC)C(=O)N(C)CC(=O)N(C)[C@H]2CCCCCN(C2=O)[C@@H](Cc2ccc(C(F)(F)F)cc2)C(=O)N(C)CC(=O)N[C@@H](CCc2cc(F)c(C(F)(F)F)c(F)c2)C(=O)N2C[C@H](OCC)C[C@H]2C(=O)N[C@](C)(CC=C)C(=O)N(C)[C@@H](C2CCCC2)C(=O)N(C)[C@H](C(=O)N2CCOCC2)CC(=O)N1C [PP0879]
- IC50 [1]: 195 nM
- Kd [2]: 8.6 nM
- NRAS/KRAS (ratio of KD value for NRAS to KD value for KRAS) [3]: B (a compound having 3 or more and less than 10 is denoted as B)
- HRAS/KRAS (ratio of KD value for HRAS to KD value for KRAS) [4]: B (a compound having 3 or more and less than 10 is denoted as B)

Compound: CCO[C@@H]1C[C@H]2C(=O)NC3(CCC3)C(=O)N(C)[C@@H](C3CCCC3)C(=O)N(C)[C@H](C(=O)N(C)C)CC(=O)N(C)[C@@H](CC)C(=O)N[C@@H]([C@@H](C)CC)C(=O)N(C)CC(=O)N(C)[C@H]3CCCCCN(C3=O)[C@@H](Cc3ccc(C(F)(F)F)cc3)C(=O)N(C)CC(=O)N[C@@H](CCc3ccc4sccc4c3)C(=O)N2C1 [PP0892]
- IC50 [1]: 53.6 nM
- Kd [2]: 0.33 nM
- NRAS/KRAS (ratio of KD value for NRAS to KD value for KRAS) [3]: B (a compound having 3 or more and less than 10 is denoted as B)
- HRAS/KRAS (ratio of KD value for HRAS to KD value for KRAS) [4]: B (a compound having 3 or more and less than 10 is denoted as B)

Compound: CCO[C@@H]1C[C@H]2C(=O)NC3(CCC3)C(=O)N(C)[C@@H](C3CCCC3)C(=O)N(C)[C@H](C(=O)N3CCOCC3)CC(=O)N(C)[C@@H](CC(C)C)C(=O)N[C@@H]([C@@H](C)CC)C(=O)N(C)CC(=O)N(C)[C@H]3CCCCCN(C3=O)[C@@H](Cc3ccc4sccc4c3)C(=O)N(C)CC(=O)N[C@@H](CCc3cc(F)c(C(F)(F)F)c(F)c3)C(=O)N2C1 [PP0920]
- IC50 [1]: 75.5 nM
- Kd [2]: 0.29 nM
- NRAS/KRAS (ratio of KD value for NRAS to KD value for KRAS) [3]: B (a compound having 3 or more and less than 10 is denoted as B)
- HRAS/KRAS (ratio of KD value for HRAS to KD value for KRAS) [4]: B (a compound having 3 or more and less than 10 is denoted as B)

Compound: CCO[C@@H]1C[C@H]2C(=O)NC3(CCC3)C(=O)N(C)[C@@H](C3CCCC3)C(=O)N(C)[C@H](C(=O)N3CCOCC3)CC(=O)N(C)[C@@H](CC(C)C)C(=O)N[C@@H]([C@@H](C)CC)C(=O)N(C)CC(=O)N(C)[C@H]3CCCCCN(C3=O)[C@@H](Cc3ccc4ccsc4c3)C(=O)N(C)CC(=O)N[C@@H](CCc3cc(F)c(C(F)(F)F)c(F)c3)C(=O)N2C1 [PP0921]
- IC50 [1]: 139 nM
- Kd [2]: 2.6 nM
- NRAS/KRAS (ratio of KD value for NRAS to KD value for KRAS) [3]: B (a compound having 3 or more and less than 10 is denoted as B)
- HRAS/KRAS (ratio of KD value for HRAS to KD value for KRAS) [4]: B (a compound having 3 or more and less than 10 is denoted as B)

Compound: CCO[C@@H]1C[C@H]2C(=O)NC3(CCC3)C(=O)N(C)[C@@H](C3CCCC3)C(=O)N(C)[C@H](C(=O)N3CCOCC3)CC(=O)N(C)[C@@H](Cc3cccc(C)c3)C(=O)N[C@@H]([C@@H](C)CC)C(=O)N(C)CC(=O)N(C)[C@H]3CCCCCN(C3=O)[C@@H](Cc3ccc(C(F)(F)F)cc3)C(=O)N(C)CC(=O)N[C@@H](CCc3cc(F)c(C(F)(F)F)c(F)c3)C(=O)N2C1 [PP0932]
- IC50 [1]: 158 nM
- Kd [2]: 2.9 nM
- NRAS/KRAS (ratio of KD value for NRAS to KD value for KRAS) [3]: B (a compound having 3 or more and less than 10 is denoted as B)
- HRAS/KRAS (ratio of KD value for HRAS to KD value for KRAS) [4]: B (a compound having 3 or more and less than 10 is denoted as B)

Compound: CCO[C@@H]1C[C@H]2C(=O)NC3(CCC3)C(=O)N(C)[C@@H](C3CCCC3)C(=O)N(C)[C@H](C(=O)N(C)C)CC(=O)N(C)[C@@H](Cc3ccccc3F)C(=O)N[C@@H]([C@@H](C)CC)C(=O)N(C)CC(=O)N(C)[C@H]3CCCCCN(C3=O)[C@@H](Cc3ccc(C(F)(F)F)cc3)C(=O)N(C)CC(=O)N[C@@H](CCc3cc(F)c(C(F)(F)F)c(F)c3)C(=O)N2C1 [PP0934]
- IC50 [1]: 51.8 nM
- Kd [2]: 0.72 nM
- NRAS/KRAS (ratio of KD value for NRAS to KD value for KRAS) [3]: B (a compound having 3 or more and less than 10 is denoted as B)
- HRAS/KRAS (ratio of KD value for HRAS to KD value for KRAS) [4]: B (a compound having 3 or more and less than 10 is denoted as B)

Compound: CCO[C@@H]1C[C@H]2C(=O)NC3(CCC3)C(=O)N(C)[C@@H](C3CCCC3)C(=O)N(C)[C@H](C(=O)N(C)C)CC(=O)N(C)[C@@H](Cc3ccc(F)c(F)c3)C(=O)N[C@@H]([C@@H](C)CC)C(=O)N(C)CC(=O)N(C)[C@H]3CCCCCN(C3=O)[C@@H](Cc3ccc(C(F)(F)F)cc3)C(=O)N(C)CC(=O)N[C@@H](CCc3cc(F)c(C(F)(F)F)c(F)c3)C(=O)N2C1 [PP0937]
- IC50 [1]: 39 nM
- Kd [2]: 1 nM
- NRAS/KRAS (ratio of KD value for NRAS to KD value for KRAS) [3]: B (a compound having 3 or more and less than 10 is denoted as B)
- HRAS/KRAS (ratio of KD value for HRAS to KD value for KRAS) [4]: B (a compound having 3 or more and less than 10 is denoted as B)

Compound: CCO[C@@H]1C[C@H]2C(=O)NC3(CCC3)C(=O)N(C)[C@@H](C3CCCC3)C(=O)N(CC)[C@H](C(=O)N3CCOCC3)CC(=O)N(C)[C@@H](CCC(F)F)C(=O)N[C@@H]([C@@H](C)CC)C(=O)N(C)CC(=O)N(C)[C@H]3CCCCCN(C3=O)[C@@H](Cc3ccc(C(F)(F)F)cc3)C(=O)N(C)CC(=O)N[C@@H](CCc3cc(F)c(C(F)(F)F)c(F)c3)C(=O)N2C1 [PP0948]
- IC50 [1]: 234 nM
- Kd [2]: 3.2 nM
- NRAS/KRAS (ratio of KD value for NRAS to KD value for KRAS) [3]: A (a compound having 10 or more and less than 20 is denoted as A)
- HRAS/KRAS (ratio of KD value for HRAS to KD value for KRAS) [4]: A (a compound having 10 or more and less than 20 is denoted as A)

Compound: CCO[C@@H]1C[C@H]2C(=O)NC3(CCC3)C(=O)N(C)[C@@H](C3CCCC3)C(=O)N(CC)[C@H](C(=O)N3CCOCC3)CC(=O)N(C)[C@@H](CC)C(=O)N[C@@H]([C@@H](C)CC)C(=O)N(C)CC(=O)N(C)[C@H]3C/C=C\CCN(C3=O)[C@@H](Cc3ccc(C(F)(F)F)cc3)C(=O)N(C)CC(=O)N[C@@H](CCc3cc(F)c(C(F)(F)F)c(F)c3)C(=O)N2C1 [PP0979]
- IC50 [1]: 281 nM
- Kd [2]: 1.7 nM
- NRAS/KRAS (ratio of KD value for NRAS to KD value for KRAS) [3]: AA (a compound having 20 or more is denoted as AA)
- HRAS/KRAS (ratio of KD value for HRAS to KD value for KRAS) [4]: A (a compound having 10 or more and less than 20 is denoted as A)

Compound: CC[C@H](C)[C@@H]1NC(=O)[C@H](CC(C)C)N(C)C(=O)C[C@@H](C(=O)N2CCOCC2)N(C)C(=O)[C@H](C2CCCC2)N(C)C(=O)C2(CCC2)NC(=O)[C@@H]2[C@@H](OCC(F)F)CCN2C(=O)[C@H](CCc2cc(F)c(C(F)(F)F)c(F)c2)NC(=O)CN(C)C(=O)[C@H](Cc2ccc(C(F)(F)F)cc2)N2CCCCC[C@@H](C2=O)N(C)C(=O)CN(C)C1=O [PP1012]
- IC50 [1]: 41.6 nM
- Kd [2]: 0.9 nM
- NRAS/KRAS (ratio of KD value for NRAS to KD value for KRAS) [3]: A (a compound having 10 or more and less than 20 is denoted as A)
- HRAS/KRAS (ratio of KD value for HRAS to KD value for KRAS) [4]: B (a compound having 3 or more and less than 10 is denoted as B)

Compound: CCO[C@@H]1C[C@H]2C(=O)NC3(CCC3)C(=O)N(C)[C@@H](C3CCCC3)C(=O)N(C)[C@H](C(=O)N(C)C)CC(=O)N(C)[C@@H](CC3CCCC3)C(=O)N[C@@H]([C@@H](C)CC)C(=O)N(C)CC(=O)N(C)[C@H]3C/C=C\CCN(C3=O)[C@@H](Cc3ccc(C(F)(F)F)cc3)C(=O)N(C)CC(=O)N[C@@H](CCc3cc(F)c(C(F)(F)F)c(F)c3)C(=O)N2C1 [PP1112, (2S,8S,12R,14S,20S,23S,27S,30S,36S,38Z)-20-cyclopentyl-27-(cyclopentylmethyl)-8-[2-[3,5-difluoro-4-(trifluoromethyl)phenyl]ethyl]-12-ethoxy-N,N,4,19,22,26,32,35-octamethyl-30-[(1S)-1-methylpropyl]-3,6,9,15,18,21,25,28,31,34,42-undecaoxo-2-[[4-(trifluoromethyl)phenyl]methyl]spiro[1,4,7,10,16,19,22,26,29,32,35-undecazatricyclo[34.5.1.0^10,14]dotetracont-38-ene-17,1′-cyclobutane]-23-carboxamide]
- IC50 [1]: 10.4 nM
- Kd [2]: 0.06 nM
- NRAS/KRAS (ratio of KD value for NRAS to KD value for KRAS) [3]: A (a compound having 10 or more and less than 20 is denoted as A)
- HRAS/KRAS (ratio of KD value for HRAS to KD value for KRAS) [4]: B (a compound having 3 or more and less than 10 is denoted as B)

From patent US20240158446A1, “CYCLIC COMPOUND HAVING SELECTIVE INHIBITORY ACTION ON KRAS OVER HRAS AND NRAS” (CHUGAI SEIYAKU KABUSHIKI KAISHA, priority 2021, published 2024)
